{FAM} = fluorescein (FAM) label
Assay: Agarose gel electrophoresis of oligonucleotide after X-ray exposure
Assay type: physicochemical
Settings: X-ray 1, 2 and 4 Gy, compared with the control
Procedure: The PC12, HCT116 and CCD 841 CoN cells (1-4×10^4/mL) were, respectively, grown on 96-well plates in a culture medium with 10% FBS for 24 hr. For liposome and LipoDox treatment experiments, the PC12 cells and CCD 841 CoN cells were, respectively, incubated with different liposome and LipoDox samples for 4 hours, followed by incubation in a fresh medium for further 24 hours. For the X-ray exposure experiments, all three types of cells were radiated with 4 Gy, followed by incubation in a fresh medium for further 24 and 48 hours. Cell viability was assessed by using the same method as described above. For X-ray treatment of pure DNA molecules and mixture of DNA and verteporfin, 50 μL of antisense oligonucleotide solution (10 μg/mL) and 50 μL of mixture solution (10 μg/mL DNA and 32 μg/mL verteporfin) was respectively exposed to X-ray radiation with different dosage (1, 2 and 4 Gy). After treatment, the gel electrophoresis was carried out in 1.2% agarose gel in Tris-acetate-EDTA (TAE) buffer at 95 V for 45 min. The gel was stained with SYBR Safe DNA Gel Stain (Thermo Fisher) and photographed under UV light using a Bio-Rad imaging system.

5′-TGGTGCTTCCCAGCCACTAT-3′ (SEQ ID NO:1) (3' {FAM}, sugars by position and backbone not given here) [DNA molecules, antisense oligonucleotide against PAC1R gene, 10 μg/mL solution exposed to X-ray]
damage to oligonucleotide after X-ray radiation (gel electrophoresis): did not cause obvious damage

From patent publication US12036282B2, “Liposomal system for drug delivery” (NewSouth Innovations PTY Limited, priority 2017, dated 2024)
